The record followed here is patent publication US6433012B1, “Method for inhibiting inflammatory disease” (Large Scale Biology Corp., priority 1998, dated 2002).

The structures appear in SMILES notation.

Data set [1] relates to MDA MB-231 cell cultures. The experiment in a line: Cytotoxicity in vitro (reduction of cell number). It is filed as cell-based. The conditions noted are these: Homo sapiens, treated for 48 h, read-out: IC50 (50% reduction of cell number relative to vehicle-treated control).
Data set [2] deals with MCF-7 human breast carcinoma cells. Briefly: Chromosome condensation / prometaphase arrest. In kind it is cell-based. The conditions noted are these: 1 μM for 24 h.
In data set [3] the test system is MCF-7 cells. Briefly: Trypan blue exclusion assay (loss of membrane integrity). It is filed as cell-based. Particulars: 1 μM, 48 h of exposure.
Data set [4] concerns HeLa cells. Briefly: Cellular microtubule networks. In kind it is cell-based, human. Particulars: 10 μM for 1 h.
Data set [5] concerns TNF-α mRNA in murine macrophage PU5-1.8 cell line. The experiment in a line: TNF-α mRNA in LPS-stimulated macrophages (Northern blot). In kind it is cell-based. The procedure: The murine macrophage PU5-1.8 cell line was purchased from the American Type Culture Collection (ATCC, Rockville, Md.). Cells were grown in DMEM medium supplemented with […], 0.1 mM nonessential amino acids, 2 mM glutamine and 5% fetal bovine serum (Life Technologies, Staten Island, N.Y.). Cells were maintained in a humidified atmosphere of 5% CO2-95% air at 37° C. Cells were passages twice weekly by firmly tapping the side of the flask to dislodge the adherent cells. Both nonadherent and adherent cells were passages. Exponentially growing cells were seeded at 5×10 ^5/mL, 4mL per 60-mm dish 24 h prior to the experiment. Test compounds were delivered in 1 mL volumes of the medium added to each dish at the start of the experiment. All dishes were incubated at 37° C. in 5% CO2-95% air for 3 h.
Total RNA was isolated by the guanidinium-cesium chloride method as described in N. S. Waleh, J. Gallo, T. D. Grant, B. J. Murphy, R. H. Kramer and R. M. Sutherland. (1994) “Selective downregulation of integrin receptors in spheroids of squamous cell carcinoma” Cancer Res., 54:838-843. Five to 10 μg of total RNA was electrophoresed in 1% agarose gels containing 6% formaldehyde. Following electrophoresis, gels were stained with ethidium bromide to visualize the positions of 28S and 18S RNA. The RNAs were then transferred to nylon membranes (Amersham Hybond N) by capillary blotting and fixed to the filter by exposure to UV light. The blots were probed with ^32P-labeled cDNA sequences of human TNF-α obtained from the American Type Culture Collection (ATCC). The TNF-α cDNA was a 1.1 kb PstI fragment of plasmid pE4 in E. coli MM294 (ATCC 39894). Hybridizations were carried out at 42° C. in 50% formamide, 5×SSC, 5×Denhardt's solution, 0.1% SDS, and 0.3 mg/mL salmon sperm DNA. Filters were washed by 1×SSC, 0.1% SDS, twice at room temperature for 15 min and once at 55° C. in 0.1×SSC, 0.1% SDS for 1 hr. Filters were exposed to X-ray film at −70° C. using an intensifying screen (Coronex Hi-Plus).
Hybridized bands were quantified by analyzing the images obtained by using a video densitometer (Applied Imaging Corporation, Santa Clara, Calif.). Film densities were calibrated using an optical-density wedge.

In data set [6] the test system is corneal neovascularization induced by bFGF. Briefly: Rat corneal neovascularization assay. It is filed as in vivo, Fischer 344 rats. The arrangement: total vascular area: unit not given here. The conditions noted are these: oral gavage 500 mg/kg twice a day for 6 days. The method, then: Hydron polymer (Interferon Sciences, New Brunswick, N.J.) was dissolved in ethanol to a concentration of 12% (W/V). A 1:1 mixture of 12% Hydron and bFGF/Sucralfate/PBS suspension was made as a casting solution and 3 μl of this solution was pipetted onto a sterile Teflon sheet and allowed to dry overnight at 4° C. Each dried pellet contained 50 ng of bFGF and 20 μg of Sucralfate. Female Fischer 344 rats (16 animals, 8-10 weeks old at an approximate weight of 150 g; Charles River, Raleigh, N.C.) were used for this study. Animals were kept in temperature-controlled rooms (24° C.) on a 12-h light-dark cycle with access to rat chow and tap water ad libitum. Following anesthesia with sodium pentobarbital given i.p. at 50 mg/kg body weight, a rat was placed under a dissecting microscope and a drop of Ophthaine was applied on the cornea of one eye. The eye was proptosed by stretching sutures on the upper and lower eyelids. A small superficial incision was made through the cornea center and a micropocket was created by separating the lamella of the stroma toward the limbus with a modified iris spatula. The distance between the bottom of the micropocket and the limbus was about 1 mm. A prepared sterile Hydron pellet was rehydrated with a drop of sterile saline and placed into the corneal micropocket. The cornea was covered with gentamycin ophthalmic ointment (Alleran, Inc., Irvine, Calif.) after surgery. Rats were randomly divided into treated and control groups. […] The drug was administrated by oral gavage at a dose of 500 mg/kg body weight, twice a day for 6 days beginning from the first postoperative day. The controls received vehicle only, and body weights of all animals were monitored and recorded daily. On the seventh postoperative day, animals were anesthetized with nembutal (50 mg/kg) and the thoracic aorta was rapidly cannulated in a retrograde fashion with PE 100 tubing. An incision was made in the right auricle for drainage of blood and saline during flushing and 40-60 mL of saline was injected via the tubing to wash out the blood from the vessels in the upper part of the body until the eyes, ears and nose became pale. Then 10 mL of Higgins waterproof Indian ink (Sanford, Bellwood, Ill.) was injected via the tubing to visualize corneal vessels. The eyes were enucleated, fixed in 10% neutralized formaldehyde buffer, and the corneas were dissected and mounted on slides. Slide-mounted corneal images were taken by using a Carl Zeiss MPS intravital microscope (Carl Zeiss, Hanover, Md.) with a camera connected to a PC equipped with Scion Image software and a frame grabber (Scion Corporation, Frederick, Md.).
For the quantitative analysis of corneal neovascularization, various parameters of the corneal images were measured by an investigator who was unaware of the treatment protocol. The shortest distance between the implanted pellet and the limbus was marked as the midline and was measured. The arc along the limbus for the entire vascularized area was drawn and the length of the arc was measured. The circumference of this area was calculated by using the following equation: Circumference (in clock hours)=Arc length×360/πD/30, where D is the corneal diameter. The marked arc was evenly divided into six sections, distances between vessel tips and the limbus at the five intersection points of the arc were measured, and the average vessel length was calculated. The perpendicular distance between the tip of the longest vessel and the limbus (longest vessel length) was also measured. To measure the percent vascular volume (i.e., the vascular volume density), three circles with a diameter of 100 pixels were located between the pellet and the limbus on the midline in the second and the fifth sections, respectively. The total area of each circle (Area-T) and the area for vessels in each circle (total black pixels) were measured (Area-V). […]

Usually IC50 stands for the midpoint of a concentration-inhibition curve. `COC(=O)c1cc(I)c(Oc2ccc(OC)cc2)c(I)c1` [BTO-956, methyl-3,5-diiodo-4-(4′-methoxyphenoxy)benzoate]: in data set [1], the 50% inhibitory concentration (IC50) turned out to be 300 nM. The “chromosome condensation (prometaphase arrest)” value in data set [2] is reported as “A large fraction of these cells showed chromosome condensation characteristic of a prometaphase arrest”. Further, the “cytotoxicity by loss of membrane integrity (trypan blue exclusion)” value in data set [3] was “substantial cytotoxicity”. Besides, the cellular microtubule networks result in data set [4] is reported as “aberrant microtubule networks”. The “inhibition of TNF-α mRNA accumulation” value in data set [5] (10 μM added to LPS (100 ng/mL) treated cultures, 3 h) is given as 61%. Further, the “effect on TNF-α mRNA expression, compound only” value in data set [5] (10 μM, without LPS, 3 h) is “no effect”. In data set [5] (cells treated with different concentrations), the “total RNA integrity” value is “intact”. In addition, the “amounts of TNF-α mRNA, concentration-effect relationship” value in data set [5] (various concentrations with LPS for 3 h) was “declined with the increasing concentrations”. Also, in data set [6], the “body weight loss or behavioral changes” value was “No significant body weight loss or behavioral changes”. For the same molecule, in data set [6] (mean ± SEM), the average vessel length is given as 0.42±0.07 mm, the “circumference of corneal neovascularization” value is 1.74±0.11 clock hours, the maximum vessel length was found to be 0.76±0.09 mm and the total vascular area is on record as 1.52±0.27. Moreover, the vascular volume density in data set [6] (mean ± SEM) is reported as 0.037±0.01. Further, the “reduction of average vessel length relative to controls” value in data set [6] (p<0.001) is 50%. Besides, in data set [6] (p<0.01), the “decrease of total vascular area compared with controls” value is given as 65%, the “decrease of vascular volume density compared with controls” value came to 84.5%, the “reduction of circumference of neovascularization compared with controls” value was found to be 45% and the “reduction of maximum vessel length relative to controls” value worked out at 38%.
